Assay results from patent US11053204B2, “Pyrimidinyloxy benzene derivatives as herbicides” (FMC Corporation, priority 2015, dated 2021).

Tests used:
Assay type in all cases: in vivo
kochia (Kochia scoparia) = assay: Test A postemergence, visual injury rating; details: 0 is no effect, 100 is complete control
Outline: (§1)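 Scoring: eye-based comparison with untreated controls, 0 for no effect through 100 for complete control, at about day 10. Treatments: directed soil spray preemergence; foliar spray postemergence on 2–10 cm plants at the one- to two-leaf stage. Medium: loam soil with sand.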

[1] = system: galium (catchweed bedstraw, Galium aparine); assay: Test A postemergence, visual injury rating; details: 0 is no effect, 100 is complete control
Outline: as §1

[2] = system: wheat (Triticum aestivum); assay: Test A postemergence, visual injury rating; details: 0 is no effect, 100 is complete control
Outline: as §1

[3] = system: Italian ryegrass (Lolium multiflorum); assay: Test A postemergence, visual injury rating; details: 0 is no effect, 100 is complete control
Outline: as §1

[4] = system: barnyardgrass (Echinochloa crus-galli); assay: Test A postemergence, visual injury rating; details: 0 is no effect, 100 is complete control
Outline: as §1

[5] = system: giant foxtail (Setaria faberii); assay: Test A postemergence, visual injury rating; details: 0 is no effect, 100 is complete control
Outline: as §1

[6] = system: ragweed (common ragweed, Ambrosia elatior); assay: Test A postemergence, visual injury rating; details: 0 is no effect, 100 is complete control
Outline: as §1

[7] = system: blackgrass (Alopecurus myosuroides); assay: Test A postemergence, visual injury rating; details: 0 is no effect, 100 is complete control
Outline: as §1

[8] = system: pigweed (Amaranthus retroflexus); assay: Test A postemergence, visual injury rating; details: 0 is no effect, 100 is complete control
Outline: as §1

corn (Zea mays) = assay: Test A postemergence, visual injury rating; details: 0 is no effect, 100 is complete control
Outline: as §1

[9] = system: crabgrass, large (large crabgrass, Digitaria sanguinalis); assay: Test C postemergence, plant response rating; details: for Crabgrass, Large plant response rating: scale 0 to 100 (0 no effect, 100 complete control)
From the text: (§2) Seeds of plant species selected from blackgrass (Alopecurus myosuroides), ryegrass, Italian (Italian ryegrass, Lolium multiflorum), wheat (winter wheat, Triticum aestivum), galium (catchweed bedstraw, Galium aparine), corn (Zea mays), crabgrass, large (large crabgrass, Digitaria sanguinalis), foxtail, giant (giant foxtail, Setaria faberii), johnsongrass (Sorghum halepense), lambsquarters (Chenopodium album), morningglory (Ipomoea coccinea), nutsedge, yellow (yellow nutsedge, Cyperus esculentus), pigweed (Amaranthus retroflexus), ragweed (common ragweed, Ambrosia elatior), soybean (Glycine max), barnyardgrass (Echinochloa crus-galli), oilseed rape (Brassica napus), pigweed, palmer (palmer pigweed, Amaranthus palmeri), waterhemp (common waterhemp, Amaranthus rudis), velvetleaf (Abutilon theophrasti), kochia (Kochia scoparia), surinam grass (Brachiaria decumbens), nightshade (eastern black nightshade, Solanum ptycanthum), wild poinsettia (Euphorbia heterophylla), windgrass (Apera spica-venti), and oat, wild (wild oat Avena fatua), were planted into a blend of loam soil and sand or a silt loam soil and treated preemergence with test chemicals formulated in a non-phytotoxic solvent mixture which included a surfactant.
(§3) At the same time, plants selected from these crop and weed species and also chickweed (common chickweed, Stellaria media), buckwheat, wild (wild buckwheat, Polygonum convolvulus), wild mustard (Sinapis arvensis), field poppy (Papaver rhoeas), field violet (Viola arvensis), geranium, cutleaf (cutleaf geranium, Geranium dissectum), Canada thistle (Cirsium arvense), and speedwell (bird's-eye speedwell, Veronica persica), were planted in pots containing Sunshine Redi-Earth® planting medium comprising spaghnum peat moss, vermiculite, starter nutrients and dolomitic limestone and treated with postemergence applications of test chemicals formulated in the same manner. Plants ranged in height from 2 to 18 cm (1- to 4-leaf stage) for postemergence treatments. Treated plants and controls were maintained in a greenhouse for 13 to 15 d, after which time all species were compared to controls and visually evaluated. Plant response ratings, summarized in Table C, are based on a scale of 0 to 100 where 0 is no effect and 100 is complete control. A dash (-) response means no test result.

[10] = system: ryegrass, Italian (Italian ryegrass, Lolium multiflorum); assay: Test C postemergence, plant response rating; details: for Ryegrass, Italian plant response rating: scale 0 to 100 (0 no effect, 100 complete control)
From the text: as §2, §3

[11] = system: nutsedge, yellow (yellow nutsedge, Cyperus esculentus); assay: Test C preemergence, plant response rating; details: Preemergence
Outline: (§4)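 Visual injury score, 0 = no effect, 100 = complete control, assigned against untreated controls after 13 to 15 d in the greenhouse. Compounds were applied in a surfactant-containing non-phytotoxic solvent mix, preemergence to seeded loam/sand or silt loam soil, or postemergence to 1- to 4-leaf plants (2 to 18 cm).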

[12] = system: waterhemp (common waterhemp, Amaranthus rudis); assay: Test C preemergence, plant response rating; details: Preemergence
Outline: as §4

[13] = system: lambsquarters (Chenopodium album); assay: Test C preemergence, plant response rating; details: Preemergence
Outline: as §4

[14] = system: wheat (winter wheat, Triticum aestivum); assay: Test C preemergence, plant response rating; details: Preemergence
Outline: as §4

[15] = system: morningglory (Ipomoea coccinea); assay: Test C preemergence, plant response rating; details: Preemergence
Outline: as §4

[16] = system: velvetleaf (Abutilon theophrasti); assay: Test C preemergence, plant response rating; details: Preemergence
Outline: as §4

[17] = 125 g ai/ha, 0 to 100 scale, approximately 10 days

## CCCCC(=O)c1c(Br)cccc1Oc1ncc(Cl)cn1 [Compound 79]
Kochia (Kochia scoparia); [17]
  Kochia plant response rating: 100
Kochia (Kochia scoparia); 500 g ai/ha
  Kochia plant response rating (0 to 100 scale): 100
[1]; 125 g ai/ha
  Galium plant response rating (0 to 100 scale): 90
[1]; 500 g ai/ha
  Galium plant response rating (0 to 100 scale): 100
[2]; [17]
  Wheat plant response rating: 20
[2]; 500 g ai/ha
  Wheat plant response rating (0 to 100 scale): 30
[3]; [17]
  Ryegrass, Italian plant response rating: 90
[3]; 500 g ai/ha
  Ryegrass, Italian plant response rating (0 to 100 scale): 90
[4]; 125 g ai/ha
  Barnyardgrass plant response rating (0 to 100 scale): 90
[4]; 500 g ai/ha
  Barnyardgrass plant response rating (0 to 100 scale): 100
[5]; 125 g ai/ha
  Foxtail, Giant plant response rating (0 to 100 scale): 80
[5]; 500 g ai/ha
  Foxtail, Giant plant response rating (0 to 100 scale): 80
[6]; [17]
  Ragweed plant response rating: 30
[6]; 500 g ai/ha
  Ragweed plant response rating (0 to 100 scale): 40
[7]; 125 g ai/ha
  Blackgrass plant response rating (0 to 100 scale): 50
[7]; 500 g ai/ha
  Blackgrass plant response rating (0 to 100 scale): 90
[8]; [17]
  Pigweed plant response rating: 100
[8]; 500 g ai/ha
  Pigweed plant response rating (0 to 100 scale): 100
Corn (Zea mays); 125 g ai/ha
  Corn plant response rating (0 to 100 scale): 80
Corn (Zea mays); 500 g ai/ha
  Corn plant response rating (0 to 100 scale): 90
[9]; 16 g ai/ha, scale of 0 to 100
  Plant response rating, Crabgrass, Large: 10
[9]; 31 g ai/ha, scale 0 to 100
  Plant response rating, Crabgrass, Large: 25
[9]; 62 g ai/ha
  Crabgrass, Large plant response rating: 70
[9]; 125 g ai/ha
  Crabgrass, Large plant response rating: 65
[10]; 16 g ai/ha, scale of 0 to 100
  Plant response rating, Ryegrass, Italian: 5
[10]; 31 g ai/ha, scale 0 to 100
  Plant response rating, Ryegrass, Italian: 30
[10]; 62 g ai/ha
  Ryegrass, Italian plant response rating: 25
[10]; 125 g ai/ha
  Ryegrass, Italian plant response rating: 30
[11]; 125 g ai/ha, scale of 0 to 100
  Plant response rating, Nutsedge, Yellow: 0
[11]; 16 g ai/ha, scale 0 to 100
  Plant response rating, Nutsedge, Yellow: 0
[11]; 31 g ai/ha, scale 0 to 100
  Plant response rating, Nutsedge, Yellow: 0
[11]; 62 g ai/ha, scale 0 to 100
  Plant response rating, Nutsedge, Yellow: 0
[12]; 125 g ai/ha, scale of 0 to 100
  Plant response rating, Waterhemp: 100
[12]; 16 g ai/ha, scale 0 to 100
  Plant response rating, Waterhemp: 100
[12]; 31 g ai/ha, scale 0 to 100
  Plant response rating, Waterhemp: 98
[12]; 62 g ai/ha, scale 0 to 100
  Plant response rating, Waterhemp: 95
[13]; 125 g ai/ha, scale of 0 to 100
  Plant response rating, Lambsquarters: 85
[13]; 16 g ai/ha, scale 0 to 100
  Plant response rating, Lambsquarters: 0
[13]; 31 g ai/ha, scale 0 to 100
  Plant response rating, Lambsquarters: 10
[13]; 62 g ai/ha, scale 0 to 100
  Plant response rating, Lambsquarters: 70
[14]; 125 g ai/ha, scale of 0 to 100
  Plant response rating, Wheat: 15
[14]; 16 g ai/ha, scale 0 to 100
  Plant response rating, Wheat: 0
[14]; 31 g ai/ha, scale 0 to 100
  Plant response rating, Wheat: 5
[14]; 62 g ai/ha, scale 0 to 100
  Plant response rating, Wheat: 5
[15]; 125 g ai/ha, scale of 0 to 100
  Plant response rating, Morningglory: 60
[15]; 16 g ai/ha, scale 0 to 100
  Plant response rating, Morningglory: 20
[15]; 31 g ai/ha, scale 0 to 100
  Plant response rating, Morningglory: 10
[15]; 62 g ai/ha, scale 0 to 100
  Plant response rating, Morningglory: 10
[16]; 125 g ai/ha, scale of 0 to 100
  Plant response rating, Velvetleaf: 75
[16]; 16 g ai/ha, scale 0 to 100
  Plant response rating, Velvetleaf: 10
[16]; 31 g ai/ha, scale 0 to 100
  Plant response rating, Velvetleaf: 5
[16]; 62 g ai/ha, scale 0 to 100
  Plant response rating, Velvetleaf: 20
